From US7868204B2, “Inhibitors of histone deacetylase” (MethylGene Inc., priority 2001, dated 2011)
Like-named read-outs stand apart in the source and are kept apart here.

How the values were obtained:
HDAC-1 = HDAC-1 (Homo sapiens, UniProt Q13547); experiment: Human HDAC-1 enzyme inhibition, Assay 2 (Boc-Lys(Ac)-AMC, Fluor-de-Lys fluorescence; compounds 604-617); assay type: biochemical; details: read-out: HDAC1 IC50
Protocol: Assay 2. The following protocol was also used to assay the compounds of the invention. In the assay, the buffer used was 25 mM HEPES, pH 8.0, 137 mM NaCl, 2.7 mM […], 1 mM MgCl2 and the substrate was Boc-Lys(Ac)-AMC in a 50 mM stock solution in DMSO. The enzyme stock solution was 4.08 μg/mL in buffer. The compounds were pre-incubated (2 μl in DMSO diluted to 13 μl in buffer for transfer to assay plate) with enzyme (20 μl of 4.08 μg/ml) for 10 minutes at room temperature (35 μl pre-incubation volume). The mixture was pre-incubated for 5 minutes at room temperature. The reaction was started by bringing the temperature to 37° C. and adding […] substrate. Total reaction volume was 50 μl. […] A plate was incubated in the dark for 10 minutes at room temperature before reading (λEx=360 nm, λEm=470 nm, Cutoff filter at 435 nm). Assay 2 was used to measure HDAC activity of compounds 604-617 (Table 5). HDAC activity of the remaining compounds was measured by assay 1.

HCT116 cells = experiment: MTT assay; assay type: cell-based; details: Homo sapiens
Outline: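 Cells plated one day before dosing, then exposed to compound 72 h at 37 °C, 5% CO2. MTT at 0.5 mg/ml final for 4 h, solubilized in DMF/SDS buffer pH 4.7; OD converted to cell number from a standard growth curve.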

[1] = tested on: acetyl-H3 in T24 human bladder cancer cells; experiment: Histone H3 acetylation assay (anti-acetyl-H3, Amplex-Red fluorescence, normalized to Alamar Blue); assay type: cell-based; details: T-24, 16 h incubation, read-out: H3 Ac t24
Protocol: T24 human bladder cancer cells growing in culture are incubated with HDAC inhibitors for 16 h. Cell viability is determined by adding 10 μl Alamar Blue (BioSource, DAL1100). Cells are washed once with PBS and fixed with methanol precooled to −20° C. for 10 min. The cells are then washed twice in PBS. The fixed cells are blocked with 50 μl of PBS+0.1% Triton X-100. Cells are probed with rabbit-anti-acetyl-H3 (Upstate #06-599) as the primary antibody and then with goat-anti-rabbit-HRP (Sigma #A-0545) as the secondary antibody. Fluorescence is read by fluorometer at Ex: 550, Em: 610, Cutoff: 590 (Auto PMT, 15 reads/well) after addition of Amplex-Red. Fluorescence signal is normalized against cell viability derived from Alamar Blue. Maximum acetylation signal of MS-275 (fluorescence unit) is measured as Emax.

[2] = tested on: acetylated histone H-4 in T24 human bladder cancer cells; experiment: Histone H4 acetylation in whole cells by immunoblots; assay type: cell-based; details: 16 h
Outline: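 T24 cells were treated with HDAC inhibitors for 16 h; […] total histone protein was resolved by SDS/PAGE and immunoblotted with polyclonal anti-acetylated H4 antibody. ECL detection, with signal quantified by densitometry.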

[3] = target: T1, cloned recombinant human HDAC-1 (Homo sapiens, UniProt Q13547); experiment: Human HDAC-1 enzyme inhibition, Assay 1 ([3H]-acetylated histone substrate, scintillation counting); assay type: biochemical; details: read-out: Human HDAC-1 IC50
T1 construct: made in house; host or cells: Baculovirus insect cell expression system
Outline: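 Recombinant human HDAC-1 from baculovirus-infected insect cells, preincubated with compound 30 min at 4° C. before reaction. Released [3H]-acetic acid extracted with ethyl acetate and counted by scintillation. IC50 taken from dose-response curves as concentration giving half-maximal inhibition.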

[4] = tested on: HCT116 human colorectal carcinoma cells; experiment: Antitumor activity in HCT116 human colorectal tumor xenograft model in vivo; parameters: species or system BALB/c nude mice; details: Mus musculus, ip, HCT 116 colorectal tumor model, read-out: % Inhibition of Tumor Growth
Protocol: Eight to ten week old female BALB/c nude mice (Taconic Labs, Great Barrington, N.Y.) were injected subcutaneously in the flank area with 2×10^6 preconditioned HCT116 human colorectal carcinoma cells. Preconditioning of these cells was done by a minimum of three consecutive tumor transplantations in the same strain of nude mice. Subsequently, tumor fragments of approximately 30 mgs were excised and implanted subcutaneously in mice, in the left flank area, under Forene anesthesia (Abbott Labs, Geneve, Switzerland). When the tumors reached a mean volume of 100 mm^3, the mice were treated intravenously, subcutaneously, or intraperitoneally by daily injection, with a solution of the histone deacetylase inhibitor in an appropriate vehicle, such as PBS, DMSO/water, or Tween 80/water, at a starting dose of 10 mg/kg. The optimal dose of the HDAC inhibitor was established by dose response experiments according to standard protocols. Tumor volume was calculated every second day post infusion according to standard methods (e.g., Meyer et al., Int. J. Cancer 43: 851-856 (1989)). […] FIGS. 2-10 show the results of additional compounds tested.

HDAC-1, sequence (Q13547 whole entry): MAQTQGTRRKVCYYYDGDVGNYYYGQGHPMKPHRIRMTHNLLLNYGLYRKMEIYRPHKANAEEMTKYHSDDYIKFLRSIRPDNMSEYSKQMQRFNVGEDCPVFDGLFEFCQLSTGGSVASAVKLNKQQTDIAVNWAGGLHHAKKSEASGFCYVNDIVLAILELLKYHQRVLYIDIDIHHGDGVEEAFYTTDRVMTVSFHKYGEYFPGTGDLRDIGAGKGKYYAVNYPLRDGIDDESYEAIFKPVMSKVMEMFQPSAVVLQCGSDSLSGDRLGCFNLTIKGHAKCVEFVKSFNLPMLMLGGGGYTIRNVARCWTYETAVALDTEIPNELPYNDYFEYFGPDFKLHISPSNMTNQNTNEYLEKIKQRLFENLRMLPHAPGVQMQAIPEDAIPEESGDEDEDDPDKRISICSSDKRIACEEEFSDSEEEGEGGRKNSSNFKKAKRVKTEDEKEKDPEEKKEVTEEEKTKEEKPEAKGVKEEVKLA
T1 sequence (Q13547 whole entry): as above

Structure (SMILES) | IC50 (HDAC-1) [nM] | IC50 (HCT116 cells; HCT-116, HCT116 cells) [nM] | EC50 [1] [nM] | further results
Nc1ccccc1NC(=O)c1ccc(N2CC[C@H](Sc3ccccn3)C2)cc1 [compound 617, (S)-N-(2-aminophenyl)-4-(3-(pyridin-2-ylthio)pyrrolidin-1-yl)benzamide] | 230 | 700 | 2000 | –
Nc1ccccc1NC(=O)c1ccc(N2CC[C@H](Oc3ccc4c(c3)OCO4)C2)cc1 [compound 614, (S)-N-(2-aminophenyl)-4-(3-(benzo[d][1,3]dioxol-5-yloxy)pyrrolidin-1-yl)benzamide] | 100 | 8000 | 1000 | –
Nc1ccccc1NC(=O)c1ccc(N2CC[C@H](Nc3cccnc3)C2)cc1 [compound 604, (S)-N-(2-aminophenyl)-4-(3-(pyridin-3-ylamino)pyrrolidin-1-yl)benzamide] | 60 | 800 | 8000 | –
COc1cc(O[C@H]2CCN(c3ccc(C(=O)Nc4ccccc4N)cc3)C2)cc(OC)c1OC [compound 613, (S)-N-(2-aminophenyl)-4-(3-(3,4,5-trimethoxyphenoxy)pyrrolidin-1-yl)benzamide] | 90 | 300 | 1000 | –
Nc1ccccc1NC(=O)c1ccc(N2CC[C@H](Oc3cccnc3)C2)cc1 [compound 606, (S)-N-(2-aminophenyl)-4-(3-(pyridin-3-yloxy)pyrrolidin-1-yl)benzamide] | 400 | 700 | 7000 | –
Nc1ccccc1NC(=O)c1ccc(N2CC[C@@H](Nc3cccnc3)C2)cc1 [compound 605, (R)-N-(2-aminophenyl)-4-(3-(pyridin-3-ylamino)pyrrolidin-1-yl)benzamide] | 300 | 3000 | 12000 | –
Nc1ccccc1NC(=O)c1ccc(Cn2cnc3ccccc3c2=O)cc1 [Cpd 154, N-(2-Amino-phenyl)-4-(4-oxo-4H-quinazolin-3-ylmethyl)-benzamide] | – | – | – | IC50 (HCT116 cells; HCT-116, 72 h, Table 5E, HCT116 cells, 72 hours): 400 nM; EC50 ([2]; T-24, Table 5E, read-out: H4 Ac (T24) EC50): < 1000 nM; IC50 ([3]; Table 5E): 300 nM; inhibition in vivo at 20 mg/kg ([4]; 20 mg/kg i.p.): 23%
Nc1nc(NCc2ccc(C(=O)Nc3ccccc3N)cc2)nc(NC2CCCC2)n1 [Cpd 16] | – | – | – | IC50 (HCT116 cells; HCT-116, 72 h, Table 5a, HCT116 cells, 72 hours): 400 nM; EC50 ([2]; T-24, Table 5a, read-out: H4Ac (T24) EC50): 1000 nM; IC50 ([3]; Table 5a): 1000 nM; inhibition in vivo at 40 mg/kg ([4]; 40 mg/kg i.p.): 50%
Nc1ccccc1NC(=O)c1ccc(N2CC[C@H](Nc3ccccc3)C2)cc1 [compound 608, (S)-N-(2-aminophenyl)-4-(3-(phenylamino)pyrrolidin-1-yl)benzamide] | 200 | 300 | 200 | –
